Laboratory results reported in PubChem BioAssay (NCI).
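Exposure lasted 48 hours, with cells grown in 96-well plates and compounds tested at five concentrations. GI50 marks 50% less growth. TGI marks complete inhibition of growth.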

Tests used:
Experiment in all cases: NCI-60 cell line screen, 48 h
[1] = test system: RXF 393 renal
[2] = test system: HL-60(TB) leukemia
[3] = test system: NCI/ADR-RES ovarian
[4] = test system: U251 CNS
[5] = test system: IGROV1 ovarian
[6] = test system: ACHN renal
[7] = test system: A498 renal
[8] = test system: MOLT-4 leukemia
[9] = test system: K-562 leukemia
[10] = test system: CCRF-CEM leukemia

Structure (SMILES) | GI50 [1] [µM] | TGI [1] [µM] | GI50 [2] [µM] | TGI [2] [µM] | GI50 [3] [µM] | TGI [3] [µM] | GI50 [4] [µM] | TGI [4] [µM] | GI50 [5] [µM] | TGI [5] [µM] | GI50 [6] [µM] | TGI [6] [µM] | GI50 [7] [µM] | TGI [7] [µM] | GI50 [8] [µM] | TGI [8] [µM] | GI50 [9] [µM] | TGI [9] [µM] | TGI [10] [µM] | GI50 [10] [µM]
O=c1[nH]c2nc(NC3CCOCC3)ncc2cc1Oc1ccc(F)cc1F | > 25 | > 25 | > 25 | > 25 | > 25 | > 25 | > 25 | > 25 | > 25 | > 25 | > 25 | > 25 | > 25 | > 25 | > 25 | > 25 | > 25 | > 25 | – | –
COC(=O)C1=C(C(=O)OC)C2(C)C=CC1O2 (stereo not drawn) | – | 57.6 | – | – | – | 37.6 | – | 31.9 | – | 37.5 | – | 18.7 | – | 54 | – | – | – | 19.4 | – | –
NNC(=O)C(=O)N/N=C1\CCC(=O)CC1C(=O)CCC(=O)Nc1ccc(Cl)cc1 (stereo not drawn) | – | > 100 | – | > 100 | – | – | – | > 100 | – | > 100 | – | > 100 | – | > 100 | – | > 100 | – | > 100 | > 100 | –
CC(C)(C)OC(=O)NCCCn1c2c(c3ccccc3c1=O)C(=O)c1ccccc1-2 | – | – | > 100 | > 100 | 6.69 | 98.6 | 11.5 | 28.3 | > 100 | > 100 | 14.3 | 67.9 | 46.1 | > 100 | > 100 | > 100 | > 100 | > 100 | > 100 | > 100
COC(=O)CC(NC(=O)OCc1ccccc1)C(C(=O)OCc1ccccc1)C(C)(OC)OC (stereo not drawn) | – | 96.9 | – | 90.9 | – | – | – | > 100 | – | > 100 | – | > 100 | – | > 100 | – | 33 | – | > 100 | 65.4 | –
COc1ccc(C(=O)C(CC2C(=O)NC(=O)NC2=O)c2ccc(OC)cc2)cc1 (stereo not drawn) | – | > 100 | – | > 100 | – | – | – | > 100 | – | > 100 | – | > 100 | – | > 100 | – | > 100 | – | > 100 | > 100 | –
CC(=O)O[C@]1(C)OC(=O)[C@@H](CC(C)C)N1[N+](=O)[O-] | – | > 100 | – | > 100 | – | – | – | > 100 | – | > 100 | – | > 100 | – | > 100 | – | > 100 | – | > 100 | > 100 | –
Cc1nc2c(n1C)C(=O)c1ccccc1C2=O | – | – | 46.8 | > 100 | 81.7 | > 100 | 63.9 | > 100 | 31.3 | > 100 | > 100 | > 100 | > 100 | > 100 | 85 | > 100 | 59.3 | > 100 | > 100 | 59.3
Cc1cccc(C)c1NC(=O)CCc1nc(=S)[nH][nH]1 | – | > 100 | – | > 100 | – | – | – | > 100 | – | > 100 | – | > 100 | – | > 100 | – | > 100 | – | > 100 | > 100 | –
Cc1ccc(S(=O)(=O)c2ccccc2[N+](=O)[O-])cc1 | – | > 100 | – | > 100 | – | – | – | > 100 | – | > 100 | – | > 100 | – | > 100 | – | > 100 | – | > 100 | > 100 | –
Cc1cc(N(CCC#N)CCC#N)ccc1N=Nc1ccc(Br)cc1 | – | 25.8 | – | > 100 | – | – | – | > 53 | – | > 57.3 | – | > 42.2 | – | 30 | – | > 58.8 | – | > 100 | > 31.6 | –
Cc1nc(Nc2cccnc2)sc1C(=O)/C=C/c1ccc(Cl)cc1 | 2.43 | 5.46 | – | – | 3.03 | 11.1 | 1.81 | 3.72 | 3.29 | > 100 | – | – | 49.5 | > 100 | 3.49 | > 100 | 2.62 | > 100 | > 100 | 3.31
C[Si](C)(C)/C=C\CCO | – | > 100 | – | > 100 | – | – | – | > 100 | – | > 100 | – | > 100 | – | > 100 | – | > 100 | – | > 100 | > 100 | –
COc1ccc(CCc2cc(OC)cc(OC)c2)cc1 | – | 63.8 | – | > 84.5 | – | – | – | > 100 | – | > 100 | – | > 100 | – | > 100 | – | 56.5 | – | 71.8 | 96.8 | –
O=C([O][Sn]([O]C(=O)c1ccccn1)([c]1ccccc1)[c]1ccccc1)c1ccccn1 | 2.77 | 13 | – | – | 11.8 | 24.8 | 1.95 | 4.62 | 1.83 | 4.03 | 9.36 | 21.2 | 1.87 | 6.56 | – | – | 0.405 | 6.37 | 2.95 | 0.565
CC(=O)OCC(=O)[C@@]12OC(C)(C)O[C@@H]1C[C@H]1[C@@H]3CC(C=O)=C4C=C(OCCCl)CC[C@]4(C)[C@@]3(F)[C@@H](O)C[C@@]12C | – | 21.6 | – | 97.1 | – | – | – | 48.5 | – | > 100 | – | > 100 | – | 57.9 | – | > 100 | – | > 100 | > 100 | –
Cc1c(NC(=S)NC(=O)c2ccc([N+](=O)[O-])cc2)c(=O)n(-c2ccccc2)n1C | – | > 100 | – | > 100 | – | – | – | > 100 | – | > 100 | – | > 100 | – | > 100 | – | > 100 | – | > 100 | > 100 | –
CCOC(=O)CCn1ncc(Cl)c(Cl)c1=O | – | 29 | – | 6.49 | – | – | – | 17.1 | – | 26 | – | 33.7 | – | 39.6 | – | 11.7 | – | 8.52 | 9.76 | –
O=C(Nc1ccc(-c2nc(-c3cccc(OCCN4CCOCC4)c3)c(-c3ccnc(Br)c3)[nH]2)cc1)c1ccccc1 | 0.309 | 1.12 | – | – | 5.2 | > 100 | – | – | 4.61 | > 100 | 3.55 | > 100 | 1.49 | 3.96 | 0.784 | > 100 | – | – | > 100 | 2.18
Cc1nc(Nc2ccccn2)sc1C(=O)/C=C/c1ccc(Cl)cc1 | – | – | 0.353 | – | 0.34 | > 100 | 0.37 | > 47.3 | 0.413 | 30.6 | 0.559 | 31 | 0.143 | 0.626 | 0.592 | > 100 | 0.395 | > 100 | > 100 | 0.445
CC1=NN(C(=O)c2ccc(Cl)cc2)C(=O)/C1=C/c1ccccc1O | – | > 100 | – | > 100 | – | – | – | > 100 | – | > 100 | – | > 100 | – | > 100 | – | > 100 | – | > 100 | > 100 | –
COc1ncnc(S(=O)(=O)c2ccc(N=C3C(=O)N(CN4CCN(c5cc6c(cc5F)c(=O)c(C(=O)O)cn6C5CC5)CC4)c4ccc(Cl)cc43)cc2)c1OC | > 50 | > 50 | 26.8 | > 50 | > 50 | > 50 | 18.7 | > 50 | > 50 | > 50 | 10.2 | > 50 | – | – | 24.9 | > 50 | 24.6 | > 50 | – | –
CCCCCCCCNCCC[C@@H](C)[C@H]1CC[C@H]2[C@@H]3[C@H](OCCCN)C[C@H]4C[C@H](OCCCN)CC[C@]4(C)[C@H]3C[C@H](OCCCN)[C@]12C | 2.22 | 16.4 | – | – | 1.93 | 5.27 | 2.23 | 6.32 | 1.49 | 3.25 | 2.02 | 6.41 | 21.3 | 54.5 | 3.12 | 9.69 | 2.84 | 11.5 | 4.27 | 1.89
C[C@]12CC[C@H](O)CC1=CC[C@@H]1C2CC[C@]2(C)Nc3c(cnn3-c3ccccc3)CC12 (stereo partly drawn) | – | 4.01 | – | 7 | – | – | – | 14.9 | – | 33.3 | – | 29.7 | – | 29.7 | – | 5.15 | – | 10.2 | 10.8 | –
O=C1/C(=C/c2ccccc2)CN(C(=O)CCN2CCCC2)C/C1=C\c1ccccc1 | – | 5.24 | – | 1.18 | – | – | – | 2.51 | – | 7.75 | – | 4.78 | – | 13 | – | 1.68 | – | 4.69 | 1.06 | –
Cn1c(-c2ccc(/C=N/NC(=S)N/N=C/c3ccc(-c4c[n+]5ccsc5n4C)cc3)cc2)c[n+]2ccsc12 | – | – | – | > 100 | – | > 100 | – | > 100 | – | > 100 | – | > 100 | – | – | – | > 100 | – | – | > 100 | –
COc1cc(NC(=O)CCSc2nc3ccc(C)cc3c(=O)n2Cc2ccccc2)cc(OC)c1OC | 3.48 | 16.6 | – | – | 9.25 | > 100 | 7.06 | 63.1 | 27.7 | > 100 | 3.72 | 34.9 | 15.8 | 60 | > 100 | > 100 | > 100 | > 100 | > 100 | > 100
